Paper PMC7319089, “Multi-Component Comparative Pharmacokinetics in Rats After Oral Administration of Fructus aurantii Extract, Naringin, Neohesperidin, and Naringin-Neohesperidin” (Frontiers in Pharmacology, 2020)
Read-outs that look alike come from different tables or passages of the source.

Experiments:
[1] = Stability of the analytes in rat plasma (QC samples); format: in vitro ADME; settings: n = 6; for Long-term Stability RE: -20 °C for one month; for Short-term Stability RE: room temperature 24 h; for Free–thaw Stability RE: three cycles -20 °C/room temperature
Protocol: The QC samples were assayed under several different conditions to evaluate the stability of the compounds in rat plasma. For the short-term stability, fresh plasma samples were kept at room temperature for 24 h before the sample preparation. After keeping the samples at room temperature for 24 h, post-preparation stability was tested. Freeze-thaw cycles (-20 °C/room temperature) stability were […] treated at -20°C for freezing-room temperature melting three times (repeated freezing and thawing three times). In each freeze-thaw cycle, the samples were frozen and stored at -20 °C for 24 h, and subsequently thawed at room. To evaluate the long-term stability of QC plasma samples, following storage at -20 °C for one month. The stability data were acceptable when the bias was within ±15% of the actual value ([Yuan et al., 2017]).

[2] = Pharmacokinetics in SD rats after oral administration of FA extract, NA, NHE or NA-NHE (UPLC-MS/MS of plasma, DAS 3.1); format: in vivo, Sprague-Dawley (SD) rats; settings: for MRT last: read-out: MRT(0-t); for MRT inf: read-out: MRT(0-∞); for Vd/F: read-out: Vz/F; for Cmax: plasma after β-glucuronidase/sulfatase hydrolysis; for AUC(0-t): read-out: AUC(0-t)
Protocol: The 20 μl of β-glucuronidase and 15 μl of sulfatase were added into 50 μl of plasma sample. After vortexed for 30 s, the mixture was incubated at 37°C for 2 h in a water bath, then placed in ice water for 5 min to terminate the reaction ([Xu et al., 2019]). IS solution (20 µl, 5 μg/ml) and acetonitrile (1.0 ml) were added into the mixture and vortexed for 2 min. […] Rats were randomly divided into the following four groups (6 rats in each group): naringin (NA), neohesperidin (NHE), naringin-neohesperidin (NA-NHE), and FA extract group. The oral administration doses were selected according to the literatures ([Tong et al., 2012]; [Yang et al., 2012]; [Committee of National Pharmacopoeia of RP China, 2015]; [Wang et al., 2018]; [Zhang et al., 2018]; [Chen et al., 2019]), the contents of the five components in FA, and the preliminary experiments. The specific doses were as follows: […] The rats had free access to water during the experiment. The blood samples were then immediately centrifuged at 4,000 rpm for 10 min. The plasma was frozen and stored at −80°C until analysis. The plasma concentration of the studied compounds was determined according to the daily calibration curve.

[3] = high QC concentration (3880 / 2946 / 2470 / 836 / 422.4 ng/mL)
[4] = low QC concentration (3.88 / 2.946 / 2.47 / 0.836 / 0.4224 ng/mL)
[5] = middle QC concentration (77.6 / 58.92 / 49.4 / 16.72 / 8.44 ng/mL)
[6] = Sprague-Dawley, rat, plasma, male SD rats, oral FA extract 10.8 g/kg of the original medicinal material, statistical moment parameters, n = 6
[7] = Sprague-Dawley, rat, male SD rats, oral FA extract 10.8 g/kg of the original medicinal material, statistical moment parameters, n = 6
[8] = male SD rats, oral FA extract 10.8 g/kg of the original medicinal material, two-compartment model parameters, n = 6
[9] = male, Sprague-Dawley, rat, plasma, po, 10.8 g/kg, male SD rats, oral FA extract 10.8 g/kg of the original medicinal material, statistical moment parameters, n = 6
[10] = male, Sprague-Dawley, rat, plasma, po, 10.8 g/kg, male SD rats, oral FA extract 10.8 g/kg of the original medicinal material, statistical moment parameters, n = 6, read-out: CLz/F (converted)
[11] = male, Sprague-Dawley, rat, plasma, po, 10.8 g/kg, male SD rats, oral FA extract 10.8 g/kg of the original medicinal material, statistical moment parameters, n = 6, read-out: Tmax
[12] = male, Sprague-Dawley, rat, plasma, po, 10.8 g/kg, male SD rats, oral FA extract 10.8 g/kg of the original medicinal material, statistical moment parameters, n = 6, read-out: t1/2z (converted)
[13] = male, Sprague-Dawley, rat, plasma, po, 10.8 g/kg, male SD rats, oral FA extract 10.8 g/kg of the original medicinal material, two-compartment model parameters, n = 6
[14] = male, Sprague-Dawley, rat, plasma, po, 10.8 g/kg, male SD rats, oral FA extract 10.8 g/kg of the original medicinal material, two-compartment model parameters, n = 6, read-out: CL/F (converted)
[15] = male, Sprague-Dawley, rat, plasma, po, 10.8 g/kg, male SD rats, oral FA extract 10.8 g/kg of the original medicinal material, two-compartment model parameters, n = 6, read-out: t1/2β (converted)
[16] = male SD rats, oral FA extract 10.8 g/kg of the original medicinal material, statistical moment parameters, n = 6

| SMILES | Long-term Stability RE [1, 3] | Long-term Stability RE [1, 4] | Long-term Stability RE [1, 5] | Short-term Stability RE [1, 3] | Short-term Stability RE [1, 4] | Short-term Stability RE [1, 5] | Free–thaw Stability RE [1, 3] | Free–thaw Stability RE [1, 4] | Free–thaw Stability RE [1, 5] | MRT last [2, 6] | MRT inf [2, 6] | Vd/F [2, 6] | Cmax [2, 7] | Ka [2, 8] | V1/F [2, 8] | t1/2α [2, 8] | AUC(0-inf) [2, 9] | AUC(0-t) [2, 9] | CL/F [2, 10] | Tmax [2, 11] | further results |
| --- | --- | --- | --- | --- | --- | --- | --- | --- | --- | --- | --- | --- | --- | --- | --- | --- | --- | --- | --- | --- | --- |
| O=C1C[C@@H](c2ccc(O)cc2)Oc2cc(O)cc(O)c21 [Naringenin, naringenin] | -9.76% | -0.84% | 12.09% | -13.49% | -3.02% | 14.81% | -10.94% | -4.36% | 8.14% | 9.71 ± 0.56 h | 9.75 ± 0.56 h | 2.06 ± 0.29 L/kg | 2450 ± 226 ng/mL | 1.94 ± 0.37 h⁻¹ | 0.82 ± 0.06 L/kg | 2.63 ± 0.39 h | 19700 ± 2630 ng·h/mL | 19600 ± 2620 ng·h/mL | 9.33 mL/min/kg | 9.33 ± 1.03 h | half-life [2, 12]: 2.56 ± 0.17 h; AUC(0-inf) [2, 13]: 20900 ± 3010 ng·h/mL; AUC(0-t) [2, 13]: 20700 ± 3010 ng·h/mL; CL/F [2, 14]: 13.8 mL/min/kg; half-life [2, 15]: 2.65 ± 0.18 h; Shape of the plasma concentration-time profile ([2]; rats, oral administration, naringin and neohesperidin determined as naringenin and hesperetin): double peaks |
| COc1ccc2ccc(=O)oc2c1CC1OC1(C)C (centres unmarked) [Meranzin, meranzin] | -7.37% | -10.98% | -13.52% | -2.81% | -6.25% | -8.40% | -6.01% | -9.71% | 11.07% | 4.82 ± 0.76 h | 6.39 ± 2.22 h | 477 ± 70.2 L/kg | 27.7 ± 2.85 ng/mL | 2.18 ± 0.97 h⁻¹ | 5.91 ± 1.12 L/kg | 6.39 ± 0.11 h | 80.4 ± 15.5 ng·h/mL | 76.9 ± 14.7 ng·h/mL | 2310 mL/min/kg | ~1 h | Tmax [2, 16]: 0.92 ± 0.13 h; t1/2z [2, 16]: 6.52 ± 0.63 h; half-life [2, 12]: > 6.5 h; AUC(0-inf) [2, 13]: 87.8 ± 22.9 ng·h/mL; AUC(0-t) [2, 13]: 84.4 ± 22.5 ng·h/mL; CL/F [2, 14]: 1200 mL/min/kg; half-life [2, 15]: 6.48 ± 0.38 h |
| COc1ccc2ccc(=O)oc2c1CC(O)C(C)(C)O (centres unmarked) [Meranzin hydrate, meranzin hydrate] | 6.85% | 7.62% | 3.19% | 7.43% | 4.71% | 1.55% | 7.63% | 5.77% | 0.71% | 5.17 ± 0.34 h | 6.57 ± 0.95 h | 9.36 ± 3.56 L/kg | 3360 ± 91 ng/mL | 2.05 ± 0.46 h⁻¹ | 4.30 ± 1.14 L/kg | 6.61 ± 0.86 h | 11600 ± 2760 ng·h/mL | 11100 ± 2820 ng·h/mL | 16.2 mL/min/kg | ~1 h | half-life [2, 12]: > 6.5 h; AUC(0-inf) [2, 13]: 12300 ± 2590 ng·h/mL; AUC(0-t) [2, 13]: 12100 ± 2760 ng·h/mL; CL/F [2, 14]: 7.5 mL/min/kg; half-life [2, 15]: 6.91 ± 1.05 h |
| COc1ccc(-c2cc(=O)c3c(OC)c(OC)c(OC)c(OC)c3o2)cc1OC [Nobiletin, nobiletin] | -3.36% | 5.83% | 6.71% | 0.80% | 7.01% | 7.89% | -1.72% | 2.21% | 10.46% | 4.23 ± 0.5 h | 4.8 ± 0.99 h | 151 ± 47 L/kg | 130 ± 4.78 ng/mL | 0.69 ± 0.25 h⁻¹ | 6.80 ± 1.24 L/kg | 4.40 ± 0.34 h | 480 ± 117 ng·h/mL | 473 ± 119 ng·h/mL | 393 mL/min/kg | 1.17 ± 0.26 h | AUC(0-t) ([2]; Sprague-Dawley, rat, plasma, po, 10.8 g/kg, rats, oral FA extract, unit inferred): 473 ± 119 ng·h/mL; half-life [2, 12]: 2.1 ± 0.37 h; AUC(0-inf) [2, 13]: 473 ± 63.1 ng·h/mL; AUC(0-t) [2, 13]: 472 ± 62.6 ng·h/mL; CL/F [2, 14]: 134 mL/min/kg; half-life [2, 15]: 4.49 ± 0.57 h |
